Columns and labels:
PC-3 cells = assay: Inhibition of proliferation: CyQuant PC-3; assay type: cell-based; conditions: 72 h; PC-3 human prostate carcinoma cells, incubated with compounds for 3 days, CyQuant NF DNA dye
Method: (§1) • GFP-4E-BP1 substrate; Invitrogen order no. PV4759 • Lanthascreen Tb-anti-p4E-BP1 (pThr46) Antibody Kit; Invitrogen order no. PV4758 • FRAP1 (mTOR) kinase; Invitrogen order no. […] Preparation of Reagents: Note: Thaw and keep mTOR, the substrate, ATP, and the antibody on ice prior to making working dilutions. Working dilutions of these components can be kept at room temperature for short periods of time the day of use. 1. Add 2 ml of 5× Assay Buffer to 8 ml water to prepare 10 ml of 1× Assay Buffer. Note: The concentration of 1× Assay Buffer is 50 mM HEPES pH 7.5, 0.01% Polysorbate 20, 1 mM EGTA, and 10 mM MnCl2. 2. Prepare Antibody/EDTA Solution by first adding 2.75 n1 of Tb-anti p4E-BP1 Antibody to 2397 n1 of LanthaScreen™ TR-FRET Dilution Buffer. Then, add 100 n1 of 0.5 M EDTA. 3. Prepare 4× Substrate/Enzyme Solution by first adding 72 n1 of GFP-4E-BP1 (22 nM) to 926 n1 of 1× Assay Buffer. Then, add 1.6 n1 of mTOR (0.45 mg/mL). 4. Prepare ATP Solution by adding 3.2 n1 of 10 mM ATP to 1997 n1 of 1× Assay Buffer. Serial Dilution of Inhibitors (16 Point Curve): Note: It is recommended that inhibitors be serially diluted in DMSO, then diluted to a 4× working concentration with 1× Assay Buffer. The below procedure describes dilution of compounds in a 96-well format prior to transfer to a 384-well format for kinase assays. This procedure calls for dilution of the compounds in 2 adjacent columns of a 96-well plate, which upon transfer to a single column of a 384-well plate with an 8-channel pipette will align the samples in order of concentration. 1. Dispense 40 n1 of DMSO to two adjacent columns of a 96 well plate per compound (e.g. columns 1 and 2). 2. Add 10 n1 of inhibitor stock (10 mM) to the first well of the first column (A1) and mix. 3. Remove 10 n1 from A1 and transfer to the adjacent well in the next column (B1) and mix. 4. Remove 10 n1 from B1 and transfer to the next well in the first column (B2) and mix. 5. Repeat this dilution pattern through well H1 and leave the last well (H2) as DMSO only. 6. Remove 4 n1 of diluted compounds and add to 96 n1 of 1× Assay Buffer in a 96-well plate making 4× compound dilutions. Kinase Reaction: 1. Add 2.5 μl of 4× compound dilutions from the first column of the 96-well plate to every other well of column 1 of a 384-well plate with an 8-channel pipette. Repeat for columns 2 and 3. 2. Add 2.5 n1 of 4× compound dilutions from the second column of the 96-well plate to the empty wells of column 1 of the 384-well plate with an 8-channel pipette. Repeat for columns 2 and 3. Note: This procedure aligns the compound dilutions in order of concentration. 3. Add 2.5 n1 of 4× Enzyme/Substrate Solution to all columns 1-6. 4. Preincubate for 30 min. at RT (shaker). 5. Add 5 n1 of ATP Solution to all wells to start reactions. 6. Shake the assay plate on a plate shaker for 30 seconds. 7. Incubate the assay plate for one hour at room temperature (20-25° C.). Stop Step and Fluorescence Detection: 1. Add 10 n1 of Antibody/EDTA Solution to each well in columns 1-9. 2. Shake the assay plate on a plate shaker for 30 seconds. 3. Incubate the assay plate for one hour at room temperature (20-25° C.). 4. Measure the GFP (FRET) and terbium (reference) emission signals on a fluorescence plate reader (e.g. Perkin Elmer Envision). Data Analysis: 1. Calculate the emission ratio for each sample by dividing the GFP (FRET) signal by the terbium (reference) signal. 2. Plot the concentration of each compound versus the emission ratio. Determine the concentration of compound required to reach 50% of the maximum signal (IC50). Determination of IC50 values can be obtained by curve fitting (sigmoidal dose response, variable slope) using Prism software from GraphPad). Inhibition of Proliferation: CyQuant PC-3 Description:
The CyQuant NF assay is based on measurement of cellular DNA content via fluorescent dye binding. Because cellular DNA content is highly regulated, it is closely proportional to cell number. […]

FRAP1 (mTOR) kinase = molecular target: T1, FRAP1 (mTOR) kinase (Homo sapiens, UniProt P42345); assay: Inhibition of mTOR-induced p-4E-BP1 phosphorylation (TR-FRET mTOR Activity Kit; Invitrogen); assay type: biochemical; conditions: 400 nM GFP-4E-BP1 substrate, ~150 ng/mL mTOR, one hour at room temperature
T1 construct: purchased Invitrogen PV4753
From the text: Inhibition of mTOR-Induced p-4E-BP1 Phosphorylation (TR-FRET mTOR Activity Kit; Invitrogen)
as §1, with “Description: […]” for “Description:”

T1 sequence (P42345 1360-2549 limits assumed): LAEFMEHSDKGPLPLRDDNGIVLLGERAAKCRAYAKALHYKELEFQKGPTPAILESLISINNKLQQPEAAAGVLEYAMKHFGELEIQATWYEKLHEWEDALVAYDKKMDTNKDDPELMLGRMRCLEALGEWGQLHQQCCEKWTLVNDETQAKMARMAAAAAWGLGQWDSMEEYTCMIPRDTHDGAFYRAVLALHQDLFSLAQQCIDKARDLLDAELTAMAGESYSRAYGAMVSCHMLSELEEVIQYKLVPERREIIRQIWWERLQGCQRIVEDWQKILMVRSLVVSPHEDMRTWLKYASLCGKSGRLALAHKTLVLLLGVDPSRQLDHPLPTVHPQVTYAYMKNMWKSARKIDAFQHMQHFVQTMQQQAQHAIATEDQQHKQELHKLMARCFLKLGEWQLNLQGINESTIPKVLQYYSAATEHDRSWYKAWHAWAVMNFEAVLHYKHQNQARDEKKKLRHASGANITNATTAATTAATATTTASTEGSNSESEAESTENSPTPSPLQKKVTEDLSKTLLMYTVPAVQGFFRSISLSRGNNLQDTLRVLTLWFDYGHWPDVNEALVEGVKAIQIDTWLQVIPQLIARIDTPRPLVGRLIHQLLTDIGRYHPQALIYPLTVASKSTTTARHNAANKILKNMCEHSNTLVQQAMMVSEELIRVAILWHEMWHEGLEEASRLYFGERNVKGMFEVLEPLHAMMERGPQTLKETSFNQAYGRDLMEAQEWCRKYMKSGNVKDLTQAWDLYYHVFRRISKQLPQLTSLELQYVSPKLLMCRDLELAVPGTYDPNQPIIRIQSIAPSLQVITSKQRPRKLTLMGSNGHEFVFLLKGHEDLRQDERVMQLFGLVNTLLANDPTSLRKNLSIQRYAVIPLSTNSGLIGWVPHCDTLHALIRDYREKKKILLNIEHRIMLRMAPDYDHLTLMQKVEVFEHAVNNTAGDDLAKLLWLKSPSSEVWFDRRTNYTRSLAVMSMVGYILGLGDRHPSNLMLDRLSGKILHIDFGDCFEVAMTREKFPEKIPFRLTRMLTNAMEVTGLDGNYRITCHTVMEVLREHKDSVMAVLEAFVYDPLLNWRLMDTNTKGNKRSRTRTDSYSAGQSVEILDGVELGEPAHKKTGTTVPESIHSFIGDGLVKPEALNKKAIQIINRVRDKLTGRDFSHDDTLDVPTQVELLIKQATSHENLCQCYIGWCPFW

SMILES | EC50 (PC-3 cells) | IC50 (FRAP1 (mTOR) kinase)
CC(=O)Nc1nc2c(s1)-c1c(c(-c3c[nH]cn3)nn1-c1ccccc1Cl)CCC2 [Example B-116] | 148 nM | 29 nM
CC(=O)Nc1nc2c(s1)-c1c(c(-c3ccc(N)nc3)nn1-c1ccccc1Cl)CCC2 [Example B-64, N-[3-(6-Amino-pyridin-3-yl)-1-(2-chloro-phenyl)-1,4,5,6-tetrahydro-9-thia-1,2,7-triaza-cyclopenta[e]azulen-8-yl]-acetamide] | 82 nM | 9 nM
CCNc1ccc(-c2nn(-c3cccc(OC)c3)c3c2CCCc2nc(NC(C)=O)sc2-3)cn1 [Example B-128] | 119 nM | 108 nM
CC(=O)Nc1nc2c(s1)-c1c(c(-c3ccc(C)nc3)nn1C1CCN(C3CC3)CC1)CCC2 [Example B-12, N-[1-(1-Cyclopropyl-piperidin-4-yl)-3-(6-methyl-pyridin-3-yl)-1,4,5,6-tetrahydro-9-thia-1,2,7-triaza-cyclopent[e]azulen-8-yl]acetamide] | 127 nM | 31 nM
CC(=O)Nc1nc2c(s1)-c1c(c(-c3c[nH]cn3)nn1CC(C)C)CCC2 [Example B-113] | 29 nM | 9 nM
CCNc1ccc(-c2nn(-c3ccccc3C)c3c2CCCc2nc(NC(C)=O)sc2-3)cn1 [Example B-07, N-[3-(6-Ethylamino-pyridin-3-yl)-1-o-tolyl-1,4,5,6-tetrahydro-9-thia-1,2,7-triaza-cyclopenta[e]azulen-8-yl]-acetamide] | 128 nM | 55 nM
COCCC(=O)Nc1nc2c(s1)-c1c(c(-c3ccc(N)nc3)nn1CC(C)C)CCC2 [Example B-134] | 143 nM | 60 nM
CCc1ccccc1-n1nc(-c2c[nH]cn2)c2c1-c1sc(NC(C)=O)nc1CCC2 [Example B-118, N-[1-(2-Ethyl-phenyl)-3-(1H-imidazol-4-yl)-1,4,5,6-tetrahydro-9-thia-1,2,7-triaza-cyclopenta[e]azulen-8-yl]-acetamide] | 55 nM | 17 nM
CNc1ccc(-c2nn(CC(C)C)c3c2CCCc2nc(NC(C)=O)sc2-3)cn1 [Example B-86, N-[1-isobutyl-3-(6-methylamino-pyridin-3-yl)-1,4,5,6-tetrahydro-9-thia-1,2,7-triaza-cyclopenta[e]azulen-8-yl]-acetamide] | 47 nM | 32 nM
CCn1nc(-c2ccc(N)nc2)c2c1-c1sc(NC(=O)N(C)C)nc1CCC2 [Example B-35] | 408 nM | 219 nM
CCNc1ccc(-c2nn(-c3ccccc3C)c3c2CCCc2nc(NC(=O)CCc4nccn4C)sc2-3)cn1 [Example B-72] | 298 nM | 84 nM
CNc1ccc(-c2nn(-c3ccccc3C)c3c2CCCc2nc(NC(=O)CCc4ncc[nH]4)sc2-3)cn1 [Example B-109] | 162 nM | 49 nM
CNc1ccc(-c2nn(C3CCN(C4CC4)CC3)c3c2CCCc2nc(NC(=O)N(C)C)sc2-3)cn1 [Example B-57] | 147 nM | 70 nM
CCNc1ccc(-c2nn(-c3ccccc3C)c3c2CCCc2nc(NC(=O)CCCN(C)C)sc2-3)cn1 [Example B-70] | 284 nM | 62 nM
CNc1ccc(-c2nn(-c3ccccc3C)c3c2CCCc2nc(NC(=O)CCOC)sc2-3)cn1 [Example B-106, 3-Methoxy-N-[3-(6-methylamino-pyridin-3-yl)-1-o-tolyl-1,4,5,6-tetrahydro-9-thia-1,2,7-triaza-cyclopenta[e]azulen-8-yl]-propionamide] | 178 nM | 69 nM
CNC(=O)Nc1nc2c(s1)-c1c(c(-c3ccc(N)nc3)nn1-c1ccccc1C)CCC2 [Example B-148, 1-[3-(6-Amino-pyridin-3-yl)-1-o-tolyl-1,4,5,6-tetrahydro-9-thia-1,2,7-triaza-cyclopenta[e]azulen-8-yl]-3-methyl-urea] | 104 nM | 15 nM
CCCn1nc(-c2ccc(C)nc2)c2c1-c1sc(NC(C)=O)nc1CCC2 [Example B-92] | 221 nM | 152 nM

From patent publication US8288379B2, “Thia-triaza-cyclopentazulenes” (Boehringer Ingelheim International GmbH, priority 2009, dated 2012)
